The text below walks through data of US20140286906A1, “USE OF IGF-1 IN THE MODULATION OF TREG CELL ACTIVITY AND THE TREATMENT AND PREVENTION OF AUTOIMMUNE DISORDERS OR DISEASES” (priority 2011, published 2014).

The test system of one series is CD25+ splenic CD4+ cells. In words: in vitro expansion of FACS-sorted splenic CD4+CD25+ cells. It counts as cell-based, murine. To be noted: TCR stimulation with anti-CD3 and anti-CD28 antibodies. As to the method:
In a preferred embodiment for expanding Treg cells in vitro/ex vivo, IGF-1 is added at a certain concentration (e.g. between 1 and 100 ng/ml) in a medium that allows for the cells to survive and grow (e.g. in mice, RPM1 1640 plus 10% fetal calf serum plus other additives including beta-mercaptoethanol, Sodium Pyruvate, Penicillin/Streptomycin, L-Glutamine or equivalent defined media). Additionally, T cells are stimulated with anti-CD3. The costimulatory agent is an antibody or ligand specific for a TCR costimulator, such as CD28 (like in example 1) or GITR, as described below.
In animal experiments, the population is isolated normally from murine spleen (but also could be isolated from other tissues, like for example but not restricted to bone marrow, adipose tissue, cord blood derived mononuclear cell, thymus, or peripheral blood) and is sorted using different markers (e.g., CD4 and CD25). This population is defined as CD4+CD25+ and includes the regulatory cells. This population is then treated in the above-mentioned medium in the presence of IGF-1. After several days of culture part of the cells are counted, fixed, permeabilized and analyzed by flow cytometry using an anti-FOXP3 antibody in combination with the same extracellular markers (CD4 and CD25). This allows for the determination of the absolute number of FOXP3 positive cells present in the culture. […]

Series [1] concerns experimental autoimmune encephalomyelitis (EAE). The class given is in vivo. The procedure:
Regarding EAE, clinical severity of the disease is scored using a grading score from 0 to 5, where 0 means no clinical signs and 5 means a moribund paralysed mouse. As the disease progresses the body is paralysed progressively from tail to upper limbs. In these experiments the protocol described by Stromnes and Goverman (2006) is used.
Shortly, single cell suspensions are prepared from the […] and spinal cord. The resulting cells are stained with anti-CD4 antibodies and separated using fluorescent-activated cell sorting. RNA is then extracted and purified and serves as a template for a quantitative RT-PCR reaction with Taqman probes. Finally, the relative amount of each mRNA compared to a house-keeping gene (Hprt) is determined.
Based on these and our previous observations, the inventors hypothesized that systemic and prolonged delivery of IGF-1 in mice developing EAE would increase and correctly localized Tregs and thus positively affect the course of the disease. The inventors therefore implanted subcutaneously the IGF-1 delivery devices and induced EAE in mice. […] In order to determine if the amelioration of the disease was associated with an increase in T regulatory function, the inventors performed immunohistochemical analysis to determine the number and localization of T regulatory cells in the spinal cord at the early stages of the disease. […] There was therefore a negative correlation between the number of Treg cells and the observed clinical score. Moreover, both clinical improvement and increased regulatory cell number associated with IGF-1 treatment were abolished by CTLA-4 blockade, which interferes with regulatory T cell function (FIG. 26; Herman et al., 2004).
The inventors induced EAE and mice and initiated the IGF-1 treatment when the first signs of paralysis appeared (FIG. 27).

A further series has as its system CD4+CD25+ splenic cells. In words: flow cytometry of activation and homing markers on CD4+CD25+ splenic cells. The class given is cell-based, murine. To be noted: after IGF-1 treatment in vitro. The source says:
The expression of certain markers on the surface of the cell is correlated with the degree of activation of the cells and also controls their trafficking and localization and consequently the compartmentalization of the immune responses. This is again measured using flow cytometric methods. For example, cells expressing high levels of CD62L preferentially migrate to secondary lymphoid tissues. However, as these cells enter the periphery (for example when they travel to affected tissues during an autoimmune process) they rapidly acquire an activated phenotype and express higher levels of CD44. Thus upregulation of CD44 is associated with a higher proliferation rate. […] The importance of this observation comes from the fact that in order to exert their suppressive properties, Tregs need to migrate to the affected tissues first. Therefore, IGF-1 not only induces activation of proliferation but also promotes their correct localization.
Finally, the inventors analyzed the ability of IGF-1 to alter the homing properties of the regulatory T cell subset. In 2003, Fisson et al. defined two distinct population of regulatory T cells in homeostatic conditions. In the steady state, some Tregs remain quiescent for long periods of time, whereas the other Treg population divides extensively and express multiple activation markers. […] This pattern of change is also consistent with a more activated phenotype. On one hand, CD44^hiCD62L^lo Treg populations, but not their CD44^loCD62L^hi counterparts, constantly incorporate BrdU, a synthetic analog of thymidine, into newly synthesized DNA in lymphoid tissues (Matsushima and Takashima, 2010). On the other hand, higher levels of CD62L have been associated with a higher capacity of Tregs to migrate to the lymph nodes, while lower levels allows them to migrate to sites of inflammation (Fisson et al., 2003; Bromley et al., 2008). Thus, T regulatory cells expressing lower levels of CD62L would have a higher inflammation-seeking capacity, which has been associated with higher suppressive potential in various inflammation models (Huehn et al., 2005). […] One, IGF-1 is able to activate a complex pathway resulting in Treg activation leading to proliferation and to selective homing and migration to the sites of inflammation. The second conclusion comes from the observation that sequential migration from blood to the target tissue and then to draining lymph nodes is required for nTreg to differentiate and execute fully their suppressive function, by inhibiting dendritic cells in the peripheral tissue and T effector cell responses in dLN and periphery (Zhang et al., 2009). Thus, IGF-1 treatment not only results in higher numbers of T regulatory cells but also in altering the trafficking of these cells to achieve a higher suppressive effect. […]
Background: Flow cytometry measures light scatter and fluorescence of single cells or particles in a stream.

[2] abbreviates: RT-PCR day 27, compared to control mice.

As to Insulin-like growth factor-1 [IGF-1], in the series with CD25+ splenic CD4+ cells, the “in vitro expansion of CD25 positive subset” value is “consistently promoted the in vitro expansion”. Moreover, in series [1] (setting [2]), the “Foxp3 expression in CD4 positive cells of the spinal cord” value was “increase”, the “IL-10 expression in CD4 positive cells of the spinal cord” value is on record as “increase”, the “IL-17 expression in CD4 positive cells of the spinal cord” value is “decrease” and the “interferon-gamma expression in CD4 positive cells of the spinal cord” value is “decrease”. Moreover, in series [1] (early stages of the disease), the “Treg cell number in the spinal cord (immunohistochemistry)” value is given as “increase in Treg cell number”. For the same substance, the “detrimental effect in EAE” value in series [1] (mouse, in vivo) is recorded as “never showed a detrimental effect”. Besides, the mortality result in series [1] (prophylactic or therapeutic manner, n=34, P=0.028) is “significantly reduced mortality”. In series [1] (prophylactic: delivery device implanted day -3, immunization day 0, 4 weeks, n=13), the “clinical outcome (clinical grading)” value is “improved clinical outcome”. Further, the clinical severity entry in series [1] (therapeutic: applied after onset of disease (day 11), P<0.05 from day 13) was “reduced clinical severity”. In addition, in the series on CD4+CD25+ splenic cells, the CD44 surface expression result is listed as “upregulated”, the CD62L surface expression result is “down” and the CD71 surface expression entry is listed as “upregulated”.
